Test results: publication PMC3500388 (Organic & biomolecular chemistry, 2012)
Where “and” joins values, the source holds several entries; their conditions need not be identical. Equal entries are not always repeated. Blank lines part the entries; values can stand above or below the compound they belong to.

Columns and labels:
full-length human ERβ = full-length human ERβ (Homo sapiens, UniProt Q92731); assay: Luciferase reporter gene assay in HepG2 cells, ERβ, antagonist mode; type: cell-based
full-length human ERα [1] = molecular target: T1, full-length human ERα (Homo sapiens, UniProt P03372); assay: Luciferase reporter gene assay in HepG2 cells, ERα, agonist mode; settings: for Agonist mode ERα Eff (%E2) / ERα agonist activity / intrinsic activity, in words: HepG2 cells; for Agonist mode ERα Eff (%E2): mean ± s.e.m. as percentage of 10^−7 M E2
T1 sequence (P03372 1-595): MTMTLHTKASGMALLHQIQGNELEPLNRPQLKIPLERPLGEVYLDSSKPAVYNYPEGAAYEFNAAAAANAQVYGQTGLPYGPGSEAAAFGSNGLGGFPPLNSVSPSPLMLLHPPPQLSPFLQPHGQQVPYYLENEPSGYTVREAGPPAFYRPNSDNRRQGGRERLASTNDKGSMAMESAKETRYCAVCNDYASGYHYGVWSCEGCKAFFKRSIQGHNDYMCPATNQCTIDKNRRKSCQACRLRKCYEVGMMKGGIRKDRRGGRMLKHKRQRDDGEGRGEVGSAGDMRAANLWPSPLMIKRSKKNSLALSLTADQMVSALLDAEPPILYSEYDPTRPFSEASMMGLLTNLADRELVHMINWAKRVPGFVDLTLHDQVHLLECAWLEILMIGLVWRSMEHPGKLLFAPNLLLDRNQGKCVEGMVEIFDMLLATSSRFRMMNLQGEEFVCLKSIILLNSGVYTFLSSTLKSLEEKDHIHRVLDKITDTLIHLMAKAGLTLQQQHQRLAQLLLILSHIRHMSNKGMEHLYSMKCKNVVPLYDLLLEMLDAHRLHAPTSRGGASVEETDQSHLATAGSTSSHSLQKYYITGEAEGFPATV

full-length human ERα [2] = molecular target: T1, full-length human ERα; assay: Luciferase reporter gene assay in HepG2 cells, ERα, antagonist mode; type: cell-based
[3] = molecular target: purified full-length human ERβ (Homo sapiens, UniProt Q92731); assay: Competitive radiometric binding assay, ERβ; settings: estradiol = 100%; 2 nM [3H]estradiol tracer, 18–24 h at 0 °C
[4] = molecular target: T2, purified full-length human ERα (Homo sapiens, UniProt P03372); assay: Competitive radiometric binding assay, ERα; settings: estradiol = 100%; 2 nM [3H]estradiol tracer, 18–24 h at 0 °C
T2 sequence (P03372 1-595): T1 sequence (P03372 1-595)

HEC-1 cells = settings: cited from earlier work

full-length human ERβ, sequence (Q92731 whole entry): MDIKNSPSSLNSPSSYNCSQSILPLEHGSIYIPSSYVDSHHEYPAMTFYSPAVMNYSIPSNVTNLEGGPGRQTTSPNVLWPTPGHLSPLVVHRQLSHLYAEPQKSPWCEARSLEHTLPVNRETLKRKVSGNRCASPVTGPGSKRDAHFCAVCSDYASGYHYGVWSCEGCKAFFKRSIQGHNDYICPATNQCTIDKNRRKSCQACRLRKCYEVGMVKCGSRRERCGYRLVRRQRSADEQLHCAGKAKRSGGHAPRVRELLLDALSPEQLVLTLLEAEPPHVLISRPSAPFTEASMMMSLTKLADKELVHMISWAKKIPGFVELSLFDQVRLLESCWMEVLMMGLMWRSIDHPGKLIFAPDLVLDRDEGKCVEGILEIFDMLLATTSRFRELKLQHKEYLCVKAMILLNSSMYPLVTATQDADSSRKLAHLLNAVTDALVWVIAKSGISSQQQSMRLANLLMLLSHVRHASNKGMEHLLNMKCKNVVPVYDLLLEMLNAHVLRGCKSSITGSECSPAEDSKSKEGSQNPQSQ
purified full-length human ERβ, sequence (Q92731 whole entry): as above

SMILES: CC/C(=C(\c1ccc(O)cc1)c1ccc(OCCN(C)C)cc1)c1ccccc1 [4-OH TAM, 4-OH tamoxifen, reference compound]
Antagonist mode ERβ Eff (%E2) (full-length human ERβ): −20 ± 2 %E2

EC50 (full-length human ERα [1]): 100 nM
Agonist mode ERα Eff (%E2) (full-length human ERα [1]): 78 ± 1 %E2
SMILES: O=S(=O)(Nc1ccccc1)C1CC2OC1C(c1ccc(O)cc1)=C2c1ccc(O)cc1 (stereo not shown) [Compound 11a, 5,6-Bis(4-hydroxyphenyl)-N-phenyl-7-oxabicyclo[2.2.1]hept-5-ene-2-sulfonamide]

EC50 (full-length human ERα [1]): 200 nM
Agonist mode ERα Eff (%E2) (full-length human ERα [1]): 81 ± 4 %E2
SMILES: O=S(=O)(Nc1ccccc1Cl)C1CC2OC1C(c1ccc(O)cc1)=C2c1ccc(O)cc1 (stereo not shown) [Compound 11c, N-(2-Chlorophenyl)-5,6-bis(4-hydroxyphenyl)-7-oxabicyclo-[2.2.1]hept-5-ene-2-sulfonamide]

Agonist mode ERα Eff (%E2) (full-length human ERα [1]): 42 ± 3 %E2
SMILES: O=S(=O)(Nc1ccc(Cl)cc1)C1CC2OC1C(c1ccc(O)cc1)=C2c1ccc(O)cc1 (stereo not shown) [Compound 11d, N-(4-Chlorophenyl)-5,6-bis(4-hydroxyphenyl)-7-oxabicyclo-[2.2.1]hept-5-ene-2-sulfonamide]

Agonist mode ERα Eff (%E2) (full-length human ERα [1]): 31 ± 3 %E2
IC50 (full-length human ERβ; read-out: Antagonist mode ERβ IC50, HepG2 cells, in the presence of 10^−8 M E2): 10 nM
IC50 (full-length human ERα [2]; read-out: Antagonist mode ERα IC50, in the presence of 10^−8 M E2): 740 nM
SMILES: CN(c1ccccc1)S(=O)(=O)C1CC2OC1C(c1ccc(O)cc1)=C2c1ccc(O)cc1 (stereo not shown) [Compound 11e, 5,6-Bis(4-hydroxyphenyl)-N-methyl-N-phenyl-7-oxabicyclo-[2.2.1]hept-5-ene-2-sulfonamide]

relative binding affinity (RBA) for ERβ [3]: 1.59% and 1.6%
EC50 (full-length human ERα [1]): 8 nM
Agonist mode ERα Eff (%E2) (full-length human ERα [1]): 33 ± 1 %E2
relative binding affinity (RBA) for ERα [4]: 7.17% and 7.2%
SMILES: CN(c1ccccc1Cl)S(=O)(=O)C1CC2OC1C(c1ccc(O)cc1)=C2c1ccc(O)cc1 (stereo not shown) [Compound 11g, N-(2-Chlorophenyl)-5,6-bis(4-hydroxyphenyl)-N-methyl-7-oxabicyclo[2.2.1]hept-5-ene-2-sulfonamide]

ERα agonist activity / intrinsic activity, in words (full-length human ERα [1]): low efficacy compound
Agonist mode ERα Eff (%E2) (full-length human ERα [1]): 11 ± 1 %E2
SMILES: CCN(c1ccccc1)S(=O)(=O)C1CC2OC1C(c1ccc(O)cc1)=C2c1ccc(O)cc1 (stereo not shown) [Compound 11i, N-Ethyl-5,6-bis(4-hydroxyphenyl)-N-phenyl-7-oxabicyclo-[2.2.1]hept-5-ene-2-sulfonamide]

ERα agonist activity / intrinsic activity, in words (full-length human ERα [1]): as low as that for fulvestrant
Agonist mode ERα Eff (%E2) (full-length human ERα [1]): 3 ± 1 %E2
ERβ profile / intrinsic activity, in words (full-length human ERβ; HepG2 cells): as low as that for fulvestrant
SMILES: CCN(c1ccc(OC)cc1)S(=O)(=O)C1CC2OC1C(c1ccc(O)cc1)=C2c1ccc(O)cc1 (stereo not shown) [Compound 11j, N-Ethyl-5,6-bis(4-hydroxyphenyl)-N-(4-methoxyphenyl)-7-oxabicyclo[2.2.1]hept-5-ene-2-sulfonamide]

Agonist mode ERα Eff (%E2) (full-length human ERα [1]): 13 ± 1 %E2
SMILES: CCN(c1ccccc1Cl)S(=O)(=O)C1CC2OC1C(c1ccc(O)cc1)=C2c1ccc(O)cc1 (stereo not shown) [Compound 11k, N-(2-Chlorophenyl)-N-ethyl-5,6-bis(4-hydroxyphenyl)-7-oxabicyclo[2.2.1]hept-5-ene-2-sulfonamide]

Agonist mode ERα Eff (%E2) (full-length human ERα [1]): 1 ± 1 %E2
SMILES: CCN(c1ccc(Cl)cc1)S(=O)(=O)C1CC2OC1C(c1ccc(O)cc1)=C2c1ccc(O)cc1 (stereo not shown) [Compound 11l, N-(4-Chlorophenyl)-N-ethyl-5,6-bis(4-hydroxyphenyl)-7-oxabicyclo[2.2.1]hept-5-ene-2-sulfonamide]

Agonist mode ERα Eff (%E2) (full-length human ERα [1]): 3 ± 3 %E2
SMILES: O=S(=O)(C1CC2OC1C(c1ccc(O)cc1)=C2c1ccc(O)cc1)N(CC(F)(F)F)c1ccc(Cl)cc1 (stereo not shown) [Compound 11o, N-(4-Chlorophenyl)-5,6-bis(4-hydroxyphenyl)-N-(2,2,2-trifluoroethyl)-7-oxabicyclo[2.2.1]hept-5-ene-2-sulfonamide]

Agonist mode ERα Eff (%E2) (full-length human ERα [1]): 1 ± 1 %E2
ERβ profile / intrinsic activity, in words (full-length human ERβ; HepG2 cells): full antagonist
ERα antagonist profile, in words (full-length human ERα [2]): full antagonist
SMILES: C[C@]12CC[C@@H]3c4ccc(O)cc4C[C@@H](CCCCCCCCC[S+]([O-])CCCC(F)(F)C(F)(F)F)[C@H]3[C@@H]1CC[C@@H]2O (stereo partly shown) [Fulvestrant, fulvestrant, reference compound]

SMILES: O=S(=O)(Oc1ccccc1)[C@H]1C[C@H]2O[C@@H]1C(c1ccc(O)cc1)=C2c1ccc(O)cc1 [OBHS, exo-5,6-bis-(4-hydroxyphenyl)-7-oxabicyclo[2.2.1]hept-5-ene-2-sulfonic acid phenyl ester]
profile in HEC-1 cells, in words (HEC-1 cells): full antagonist
